# Measured values taken from patent US20240197816A1, “COMPOSITION AND METHOD FOR PROLONG SURVIVAL OF TRANSPLANT AND RECIPIENT” (NovMetaPharma Co., Ltd., priority 2022, published 2024).
# Tests used:
# [1] = system: F344 donor kidney transplanted into LEWIS rats; assay: Survival of recipients in rat allogeneic kidney transplantation, minor MHC incompatible model; type: in vivo; details: CHP 40 mg/kg i.v. 1 hour before transplantation, then 40 mg/kg i.p. three times a week, n=4, untreated control 9 days (n=7)
# Procedure: Donor surgery: After removing abdominal hair from donor rat under general anesthesia, the surgical area was disinfected and covered with surgical cloth. After a midline incision in the abdominal wall, one kidney was exposed, and 8 iu/kg of heparin was administered intravenously, followed by nephrectomy.
# Table Surgery: Removed unnecessary tissue to anastomosis the artery, vein, and ureter of the extracted kidney to the blood vessel and ureter of the recipient, and covered and stored with gauze soaked in saline at 4° C.
# Recipient surgery: After removal of abdominal hair of recipient rat under general anesthesia, the surgical area was disinfected and covered with surgical cloth. After a midline incision in the abdominal wall, the right kidney was exposed, the kidney was resected, and the donor renal artery and vein were anastomized end to side to the […]. The ureter of donor's kidney was sutured after incising the bladder. After confirming that the perfusion of the kidney was good (FIG. 1), the abdominal wall was closed, and the animal was placed on a blanket at 37° C. to recover.
# As a minor MHC incompatible model, a kidney transplantation model F344 rats were used as donors and LEWIS rats were used as recipients. After resection of the recipients' right kidney on Day 0 (DO), the donors' kidney was transplanted into the recipients. […]
# [2] = system: transplanted kidney (F344 to LEWIS rats); assay: Weekly ultrasound (color Doppler) of blood flow to the transplanted kidney; type: in vivo, rat; details: CHP treatment group, ultrasound once a week
# Procedure: In the control group, CHP administration group (F344 to LEWIS rats), and inbred (LEWIS to LEWIS rats) kidney transplantation model, ultrasound was performed once a week to check the smooth flow of blood to the transplanted kidney.
# [3] = system: transplanted kidney (F344 to LEWIS rats); assay: Graft kidney tissue findings (histology); type: in vivo, rat; details: TPL+CHP group; graft tissue on the 45th day
# Excerpt: These phenomena are believed to be an effect of CHP that can suppress the acute rejection reaction that occurs within days after transplantation. In FIG. 5, graft kidney tissue findings on the 7th day of rejection in the left […] control group (Syngenic TPL) and on the 45th day in the CHP treated group (TPL+CHP).
# [4] = system: transplanted kidney (F344 to LEWIS rats); assay: Evaluation of graft function (BUN, serum creatinine) after kidney transplantation; type: in vivo, rat
# Excerpt: Individual data points represent the following groups: the syngeneic transplant recipients (Syngenic; n=3), transplant recipients without CHP administration (TPL; n=5), and the CHP-treated transplant recipients (TPL+CHP; n=5). […] This significant improvement in key renal function indicators highlights a promising advancement in post-transplant care, reducing the reliance on immunosuppressive therapies, and prolonging recipient survival and enhancing graft survival.
# [5] = system: transplanted kidney; Nrf2; assay: PAS and Nrf2 immunohistochemistry of transplanted kidney five days after transplantation; type: in vivo, rat
# Excerpt: All animals were sacrificed at five days from post-kidney transplantation. The administration of CHP to the transplant recipient group decreased tubular atrophy, tubulitis, endothelialitis, leukocyte infiltration, while increasing the level of antioxidative stress marker Nrf2 (Nuclear factor erythroid-2-related factor). These findings highlight the potential of CHP to exert protective (e.g., anti-inflammatory and antioxidative) effects in the transplantation rat model.
structure (smiles),measurement,setting,value
"O=C1N[C@@H](Cc2cnc[nH]2)C(=O)N2CCC[C@@H]12 [CHP, Cyclo histidine-proline]",mean survival day (SMD),[1],326 days
same,blood flow to the transplanted kidney (ultrasound),[2],blood flow to the kidney was smooth
same,borderline changes suggestive of acute cell-mediated rejection and microvascular inflammation,[3],rapidly decreased
same,focal glomerular necrosis and severe tubulointerstitial changes,[3],decrease
same,function of the grafted organ,"[4]; CHP-treated animals, entire period of survival, weekly measurements over 46 weeks",fully function
same,serum creatinine,"[4]; TPL+CHP group at 3 weeks after transplantation, syngenic group 0.71 mg/dL",0.82 mg/dL
same,serum creatinine levels,"[4]; five days post-transplantation, TPL+CHP n=5, TPL without CHP 7.23±0.39, p<0.0001",1.32 ± 0.13 mg/dL
same,blood urea nitrogen (BUN),"[4]; five days post-transplantation, TPL+CHP n=5, TPL without CHP 193.5±8.54, p<0.0001",41.98 ± 5.69 mg/dL
same,level of antioxidative stress marker Nrf2,[5]; Nrf2 immunohistochemistry,increasing
same,"tubular atrophy, tubulitis, endothelialitis, leukocyte infiltration",[5]; PAS staining,decreased
